The source of these data is ChEMBL document CHEMBL5233215, “Recent developments of chalcones as potential antibacterial agents in medicinal chemistry” (Eur J Med Chem, 2020).

Values after ≈ are worked out from the molar mass of the structure shown.

Assay [1] relates to Staphylococcus aureus. Put plainly: Antibacterial activity methicillin-resistant Staphylococcus aureus ATCC 700699 assessed as inhibition of bacterial growth incubated for 16 hrs by CLSI protocol based microdilution method. The class given is functional. Background: Dilution methods test growth across graded concentrations, often in twofold steps.
Assay [2] concerns Staphylococcus aureus. Kind of assay: Antibacterial activity Staphylococcus aureus ATCC 25923 assessed as inhibition of bacterial growth incubated for 16 hrs by CLSI protocol based microdilution method. The class given is functional.
The subject of assay [3] is Staphylococcus aureus. Put plainly: Antibacterial activity Staphylococcus aureus ATCC 29213 assessed as inhibition of bacterial growth incubated for 16 hrs by CLSI protocol based microdilution method. Type of assay: functional.
Assay [4] relates to Staphylococcus aureus. Put plainly: Antibacterial activity Staphylococcus aureus ATCC 33592 assessed as inhibition of bacterial growth incubated for 16 hrs by CLSI protocol based microdilution method. The class given is functional.
Assay [5] concerns Staphylococcus aureus. Kind of assay: Antibacterial activity methicillin-resistant Staphylococcus aureus B10760 assessed as inhibition of bacterial growth by microdilution broth method. Type of assay: functional.
Assay [6] has as its system Staphylococcus aureus. Kind of assay: Antibacterial activity methicillin-resistant Staphylococcus aureus ST3151 assessed as inhibition of bacterial growth by microdilution broth method. The class given is functional.
Assay [7] deals with Staphylococcus aureus. Kind of assay: Antibacterial activity methicillin-resistant Staphylococcus aureus P4627 assessed as inhibition of bacterial growth by microdilution broth method. Type of assay: functional.
Assay [8] has as its system Staphylococcus aureus. Put plainly: Antibacterial activity methicillin-resistant Staphylococcus aureus P4620 assessed as inhibition of bacterial growth by microdilution broth method. The class given is functional.
The subject of assay [9] is Staphylococcus aureus. Put plainly: Antibacterial activity methicillin-resistant Staphylococcus aureus P4423 assessed as inhibition of bacterial growth by microdilution broth method. Type of assay: functional.
Assay [10] deals with Streptococcus pyogenes. Kind of assay: Antimicrobial activity against Streptococcus pyogenes assessed as bacterial growth inhibition incubated for 18 hrs by broth micro dilution method.
Assay [11] deals with Staphylococcus aureus. Put plainly: Antimicrobial activity against Staphylococcus aureus assessed as bacterial growth inhibition incubated for 18 hrs by broth micro dilution method. The class given is functional.
Assay [12] deals with Salmonella typhimurium. Put plainly: Antimicrobial activity against Salmonella typhimurium assessed as bacterial growth inhibition incubated for 18 hrs by broth micro dilution method. The class given is functional, Salmonella enterica subsp. enterica serovar Typhimurium. Particulars: Salmonella enterica.
The subject of assay [13] is Escherichia coli. Put plainly: Antimicrobial activity against Escherichia coli assessed as bacterial growth inhibition incubated for 18 hrs by broth micro dilution method. The class given is functional.
Assay [14] has as its target DNA gyrase (Staphylococcus aureus, UniProt P0A0K8+P20831). Put plainly: Inhibition of Staphylococcus aureus DNA gyrase. Type of assay: protein-complex assay.
In assay [15] the test system is Streptococcus pyogenes. Kind of assay: Antibacterial activity Streptococcus pyogenes assessed as inhibition of bacterial growth by […] dye based colorimetric method. The class given is functional.
For assay [16], the system named is Staphylococcus aureus. Put plainly: Antibacterial activity Staphylococcus aureus assessed as inhibition of bacterial growth by […] dye based colorimetric method. Type of assay: functional.
In assay [17] the test system is Escherichia coli. Put plainly: Antibacterial activity Escherichia coli assessed as inhibition of bacterial growth by […] dye based colorimetric method. Type of assay: functional.
For assay [18], the system named is Enterococcus faecalis. Kind of assay: Antibacterial activity Enterococcus faecalis ATCC 33186 assessed as inhibition of bacterial growth by CLSI based microbroth dilution assay. The class given is functional.
Assay [19] deals with Staphylococcus aureus. Kind of assay: Antibacterial activity methicillin-resistant Staphylococcus aureus USA300 assessed as inhibition of bacterial growth by CLSI based microbroth dilution assay. The class given is functional.
Assay [20] deals with Bacillus anthracis. Kind of assay: Antibacterial activity Bacillus anthracis Sterne 34F2 assessed as inhibition of bacterial growth by CLSI based microbroth dilution assay. The class given is functional.
For assay [21], the system named is Klebsiella pneumoniae. Put plainly: Antibacterial activity Klebsiella pneumoniae assessed as inhibition of bacterial growth incubated for 12 to 18 hrs by NCCLS protocol based microdilution method. Particulars: time 12-18 hrs. Type of assay: functional.
In assay [22] the test system is Staphylococcus aureus. Kind of assay: Antibacterial activity Staphylococcus aureus assessed as inhibition of bacterial growth incubated for 12 to 18 hrs by NCCLS protocol based microdilution method. Type of assay: functional. Particulars: time 12-18 hrs.
Assay [23] has as its system Listeria monocytogenes. Put plainly: Antibacterial activity Listeria monocytogenes ATCC 7644 assessed as inhibition of bacterial growth incubated for 24 hrs by broth microdilution method. Type of assay: functional.
The test system of assay [24] is Staphylococcus aureus. Kind of assay: Antibacterial activity Staphylococcus aureus ATCC 6538 assessed as inhibition of bacterial growth incubated for 24 hrs by broth microdilution method. The class given is functional.
Assay [25] has as its system Staphylococcus aureus. Kind of assay: Antibacterial activity Staphylococcus aureus ATCC 588 assessed as inhibition of bacterial growth incubated for 24 hrs by broth microdilution method. Type of assay: functional.

Sequence of DNA gyrase (P0A0K8 whole entry): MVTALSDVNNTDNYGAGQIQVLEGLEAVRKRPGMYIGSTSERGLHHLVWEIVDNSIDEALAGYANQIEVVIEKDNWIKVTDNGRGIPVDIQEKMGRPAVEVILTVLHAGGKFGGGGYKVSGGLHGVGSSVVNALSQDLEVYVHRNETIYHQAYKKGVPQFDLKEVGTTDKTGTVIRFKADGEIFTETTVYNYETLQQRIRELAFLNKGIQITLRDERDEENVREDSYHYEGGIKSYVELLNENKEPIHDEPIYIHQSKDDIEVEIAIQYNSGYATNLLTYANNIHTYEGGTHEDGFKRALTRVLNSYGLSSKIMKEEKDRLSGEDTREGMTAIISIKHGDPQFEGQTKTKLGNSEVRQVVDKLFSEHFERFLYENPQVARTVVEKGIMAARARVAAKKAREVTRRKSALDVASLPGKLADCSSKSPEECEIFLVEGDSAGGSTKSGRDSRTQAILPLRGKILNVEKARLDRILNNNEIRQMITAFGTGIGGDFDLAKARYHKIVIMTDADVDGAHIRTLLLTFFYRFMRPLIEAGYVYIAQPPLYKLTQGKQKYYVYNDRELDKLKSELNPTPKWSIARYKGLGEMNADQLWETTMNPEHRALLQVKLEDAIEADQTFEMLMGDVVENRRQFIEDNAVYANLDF
Sequence of DNA gyrase (P20831 whole entry): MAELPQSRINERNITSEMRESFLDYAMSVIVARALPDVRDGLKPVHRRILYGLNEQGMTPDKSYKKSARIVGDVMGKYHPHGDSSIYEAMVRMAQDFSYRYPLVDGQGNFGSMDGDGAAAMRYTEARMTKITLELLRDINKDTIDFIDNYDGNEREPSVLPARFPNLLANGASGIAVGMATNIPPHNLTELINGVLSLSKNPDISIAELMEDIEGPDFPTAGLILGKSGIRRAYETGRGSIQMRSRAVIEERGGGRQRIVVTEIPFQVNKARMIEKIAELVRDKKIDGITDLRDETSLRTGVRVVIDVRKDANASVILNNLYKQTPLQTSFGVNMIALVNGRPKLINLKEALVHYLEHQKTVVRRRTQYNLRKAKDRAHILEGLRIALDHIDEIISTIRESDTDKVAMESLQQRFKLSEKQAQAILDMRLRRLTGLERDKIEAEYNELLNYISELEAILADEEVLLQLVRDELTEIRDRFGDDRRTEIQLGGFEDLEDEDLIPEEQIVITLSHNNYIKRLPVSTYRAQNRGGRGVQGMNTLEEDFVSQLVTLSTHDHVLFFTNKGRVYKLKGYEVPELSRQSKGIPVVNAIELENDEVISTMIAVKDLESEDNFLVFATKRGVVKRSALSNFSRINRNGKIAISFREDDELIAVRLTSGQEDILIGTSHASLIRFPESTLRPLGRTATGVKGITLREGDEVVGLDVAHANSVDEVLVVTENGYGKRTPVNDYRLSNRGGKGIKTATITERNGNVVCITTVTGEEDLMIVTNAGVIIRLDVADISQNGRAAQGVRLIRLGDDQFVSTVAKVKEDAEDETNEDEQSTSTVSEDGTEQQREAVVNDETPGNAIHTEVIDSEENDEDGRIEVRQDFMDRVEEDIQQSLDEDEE

As usually defined, the MIC is the lowest concentration that inhibits growth of the organism. Regarding `COc1ccc(-c2csc(/N=C/c3cc(/C=C/C(=O)c4ccc(C)cc4)cc(C(C)(C)C)c3O)n2)cc1OC`, the MIC came to 11.6 µg/mL (≈ 21.5 µM) in [1], 5.8 µg/mL (≈ 10.7 µM) in [2], 5.8 µg/mL (≈ 10.7 µM) in assay [3] and 1.4 µg/mL (≈ 2.59 µM) in assay [4].

Consider `O=C(/C=C/c1ccc(O)cc1)c1ccc2c(c1O)CN(Cc1cc(C(F)(F)F)ccc1Cl)CO2`, for which the MIC in assay [5], in [6], in [7], in assay [8] and in assay [9] was 25 µg/mL (≈ 51 µM) in each case.

For the compound `Cc1cc(C(=O)/C=C/c2c(C)cn(-c3ccccc3)c2C)c(C)s1`, the minimal inhibitory concentration (MIC) in [10] turned out to be 32 µg/mL (≈ 95.4 µM); in [11] it was 32 µg/mL (≈ 95.4 µM); in assay [12], 16 µg/mL (≈ 47.7 µM); in [13], 16 µg/mL (≈ 47.7 µM).

The term IC50 denotes the concentration that inhibits the measured activity by half. A higher IC50 goes with lower potency. In [14], `Cc1c(Cl)ccc2cc(/C=C/C(=O)c3ccc(Br)cc3)c(Cl)nc12` showed a half-maximal inhibitory concentration (IC50) of 0.332 µM. Besides, the MIC in assay [15], in [16] and in [17] was 125 µg/mL (≈ 297 µM) throughout.

`Cc1cc(C(=O)CC(Sc2ccc(Cl)cc2)c2ccc(Cl)cc2)ccc1O` (stereo not given): the minimal inhibitory concentration (MIC) in assay [18] is 1.56 µg/mL (≈ 3.74 µM); in assay [19], 0.78 µg/mL (≈ 1.87 µM); in [20], 3.12 µg/mL (≈ 7.49 µM).

As to `Nc1ccccc1C(=O)CC(c1ccc(Cl)cc1)S(=O)(=O)c1ccccc1` (stereo not given), the figures for the MIC in [21] and in assay [22] were 25.5 µg/mL (≈ 63.8 µM) and 1.95 µg/mL (≈ 4.88 µM), respectively.

`O=C(CCc1ccc(O)cc1)c1c(O)cc(O)cc1O` [PHLORETIN]: the MIC in [23] came to 62.5 µg/mL (≈ 228 µM); in assay [24], 7.81 µg/mL (≈ 28.5 µM); in assay [25], 7.81 µg/mL (≈ 28.5 µM).
